Source: publication PMC8780978, “Antiplatelet and Antithrombotic Effects of Isaridin E Isolated from the Marine-Derived Fungus via Downregulating the PI3K/Akt Signaling Pathway” (Marine Drugs, 2021)
Each block holds one molecule with its values, some of them ahead of it. Where a SMILES comes first, the peptide text is derived from it. [ ]: non-standard residue; d: D form. ξ: configuration not given here. ξLac(3-iPr) = CC(C)CC(O)C(=O)O; NMeV = CN[C@H](C(=O)O)C(C)C; βAla = NCCC(=O)O

Tests used:
Tail-bleeding assay = conditions: for tail bleeding time versus vehicle control: single intragastric dose 3 h before, n = 5 mice
Procedure: Mice were assigned randomly to […] and intragastrically administrated with a single dose of vehicle, isaridin E (12.5, 25, 50, or 100 mg/kg), or clopidogrel (10 mg/kg) at 3 h before the cutting-tail experiment. Tails were transected at a distal margin of 5 mm and were immediately immersed into 10 mL of saline at 37 °C. The bleeding time was recorded as when the observed bleeding ceased.

washed mouse platelets [1] = assay: LDH (lactate dehydrogenase) release cytotoxicity assay; assay type: cell-based; conditions: for LDH Release (%): 37 °C, 30 min, n = 6
Source text: We first examined whether isaridin E has cytotoxic effects on washed mouse circulating platelets using the LDH (lactate dehydrogenase) cytotoxicity assay kit. Destruction of the cell membrane caused by apoptosis or necrosis leads to the release of enzymes in the cytoplasm into the culture medium, including LDH, with stable enzyme activity. Therefore, the quantitative analysis of the percentage of LDH leakage from the platelets is commonly used to evaluate the cytotoxic effects of tested compounds, and LDH > 10% was considered cytotoxic. […] Next, we tested whether treatment with isaridin E for 3 h (a single intragastric administration at 100 mg/kg) affects hematological and coagulation parameters in vivo.
(§1) Washed platelets were prepared as previously described by Zhongren Ding et al.. Whole blood was collected from the abdominal aorta using a syringe containing 3.8% sodium citrate (9:1, V/V) as an anticoagulant. Citrated blood (2 mL) was centrifuged at room temperature at 300× g for 2 min to obtain platelet-rich plasma (PRP). Platelets were obtained by the further centrifugation of PRP at 700× g for 2 min, and resuspended in Tyrode’s buffer (138 mM of NaCl, 2.7 mM of KCl, 1 mM of MgCl2, 3 mM of NaH2PO4, 5 mM of glucose, 10 mM of HEPES, pH 7.4) with 0.02 U/mL apyrase (A6410, Sigma-Aldrich, St. Louis, MO, USA) to a density of 3 × 10^8 of platelets/mL for use.
The possible cytotoxic effect of isaridin E on mouse platelets was assessed with the LDH Cytotoxicity Assay Kit (C0016, Beyotime Biotechnology, Haimen, China). Washed mouse platelets were pretreated with vehicle or different concentrations of isaridin E ([…], 12.5, 25, 50, 100, 200, or 400 μM) at 37 °C for 30 min, and then collected for detection following the manufacturer’s instructions. The cytotoxic effects were determined using the percentage of LDH leakage released from the platelets (% LDH release).

[2] = Hematologic parameters after single intragastric dose; assay type: in vivo, mice; conditions: 3 h
Procedure: (§2) Mice were intragastrically administrated with a single dose of isaridin E (100 mg/kg) or vehicle at 3 h before anesthesia. Whole blood was drawn from the abdominal aorta and collected in K2EDTA anticoagulant tubes to evaluate the hematologic parameters with an automatic hematology analyzer (BC-2800 vet, Mindray, Shenzhen, China). The citrated blood was centrifuged at 1500× g (25 °C) for 15 min to obtain the platelet-poor plasma (PPP). PPP was then used to measure the coagulation parameters, including ATPP, PT, TT, and FIB, with an automated coagulation analyzer (RAC-030, Rayto, Shenzhen, China).

[3] = Coagulation parameters (APTT, PT, TT, FIB) after single intragastric dose; assay type: in vivo, mice; conditions: 3 h
Procedure: as §2

washed mouse platelets [4] = assay: ADP-induced platelet aggregation (light transmission aggregometry); assay type: cell-based; conditions: ADP 5 μM; for ADP-induced maximum platelet aggregation, % of vehicle control: 30 min pretreatment
Procedure: as §1
(§3) The platelet aggregation and release assay were performed as previously reported. Washed mouse platelets were treated with isaridin E (6.25, 12.5, 25, 50, 100, or 200 μM) or vehicle or clopidogrel (20 μM) at 37 °C for 30 min, followed by stimulation with ADP (01905, Sigma-Aldrich, St. Louis, MO, USA, 5 μM), collagen (C7661, Sigma-Aldrich, St. Louis, MO, USA, 1 μg/mL) or thrombin (T6884, Sigma-Aldrich, St. Louis, MO, USA, 0.02 U/mL). The platelet aggregation was assessed using a lumi-aggregometer (700-2, Chrono-Log, Havertown, PA, USA) with a stirring speed of 1200 rpm at 37 °C. The release of ATP was simultaneously monitored using Luciferin/luciferase reagent (395, Chrono-Log, Havertown, PA, USA). Aggregation traces and ATP release traces were monitored continuously for at least 10 min.

washed mouse platelets [5] = assay: Thrombin-induced platelet aggregation; assay type: cell-based; conditions: thrombin 0.02 U/mL, p > 0.05
Procedure: as §1
(§4) The platelet aggregation and release assay were performed as previously reported. […] The platelet aggregation was assessed using a lumi-aggregometer (700-2, Chrono-Log, Havertown, PA, USA) with a stirring speed of 1200 rpm at 37 °C. The release of ATP was simultaneously monitored using Luciferin/luciferase reagent (395, Chrono-Log, Havertown, PA, USA). Aggregation traces and ATP release traces were monitored continuously for at least 10 min.

washed mouse platelets [6] = assay: Collagen-induced platelet aggregation; assay type: cell-based; conditions: collagen 1 μg/mL, p > 0.05
Procedure: as §1, §4

washed mouse platelets [7] = assay: ADP-induced platelet ATP release (luciferin/luciferase); assay type: cell-based; conditions: ADP 5 μM
Procedure: as §1, §3

washed mouse platelets [8] = assay: ADP-induced platelet activation, CD62p surface expression by flow cytometry; assay type: cell-based; conditions: 30 min, then 50 μM ADP 5 min, vehicle 35.6 ± 1.7%
Procedure: as §1
Washed mouse platelets were pretreated with vehicle or different concentrations of isaridin E for 30 min at 37 °C, followed by stimulation with 50 μM ADP for 5 min. Platelets were then stained with FITC-conjugated anti-CD41 antibody (133904, Biolegend, San Diego, CA, USA) and PE-conjugated anti-CD62p antibody (148306, Biolegend, San Diego, CA, USA) for 20 min at 25 °C in the dark. Then, platelets were fixed in 1% paraformaldehyde solution and analyzed with a CytoFLEX flow cytometer (Beckman Coulter, Brea, CA, USA).

[9] = FeCl3-induced carotid artery thrombosis mouse model; assay type: in vivo, C57BL/6J mice
Procedure: The mouse model of carotid artery thrombosis induced by FeCl3 injury was performed and monitored by a stereoscopic fluorescence microscope as previously described. […] Mice were then anesthetized with a single dose of sodium pentobarbital (60 mg/kg, i.p., Sigma-Aldrich, St. Louis, MO, USA). Rhodamine 6G (83697, Sigma-Aldrich, St. Louis, MO, USA; 0.5 mg/mL) was injected into the right jugular vein to label platelets. The carotid artery (CA) was carefully exposed, and a black "U"-shaped plastic (3 mm) was inserted under the CA gently to block background fluorescence. Filter papers (1 × 2 mm) with 7.5% saturated FeCl3 solution were applied topically for 1 min, and thrombus formation in the injured CA was recorded in real time using a stereoscopic fluorescence microscope (M205FA, Leica, Wetzlar, Germany) for 12 min.

PI3K = assay: ADP-induced phosphorylation of PI3K, Western blot; assay type: cell-based, human; conditions: 50 μM, Meg-01 cells
Procedure: (§5) Western blotting was performed as described in our previous study. Meg-01 cells were lysed with protein lysis buffer (P0013, Beyotime Biotechnology, Haimen, China) containing a protease inhibitor cocktail (539131, Millipore, Billerica, MA, USA) and phosphatase inhibitor cocktail (K1012, APExBIO, Houston, TX, USA). The samples (20 μg) were then separated by 8% SDS-PAGE gel and transferred onto PVDF membranes. The PDVF membranes were incubated with primary antibodies at 4 °C for 12 h. After incubating with the appropriate HRP-conjugated secondary antibodies (7076, 7074, Cell Signaling Technology, Danvers, MA, USA), blots were detected with chemiluminescent HRP substrate (P90719, Millipore, Billerica, MA, USA) using the ChemiDoc XRS+ system (BIO-RAD, Hercules, CA, USA). Primary antibodies against the following antigens were listed: PI3K (4257, Cell Signaling Technology, Danvers, MA, USA), Phospho-PI3K (ab226842, Abcam, Cambridge, UK), Akt (4691, Cell Signaling Technology, Danvers, MA, USA), Phospho-Akt (4056, Cell Signaling Technology, Danvers, MA, USA), and β-actin (66009-1, Proteintech, Rosemont, IL, USA).

Akt = assay: ADP-induced phosphorylation of Akt, Western blot; assay type: cell-based, human; conditions: 50 μM, Meg-01 cells
Procedure: as §5

human neutrophils = test system: human neutrophils; parameters: method as in PMID 23822585; conditions: cited from earlier work
[10] = parameters: method as in PMID 21438588; conditions: cited from earlier work
[11] = 100 mg/kg single gavage, n=5 mice
[12] = 100 mg/kg single intragastric administration
[13] = 100 mg/kg single oral gavage, n = 5 mice

- tail bleeding time versus vehicle control (Tail-bleeding assay; 10 mg/kg): significantly increased
Structure (SMILES): COC(=O)[C@H](c1ccccc1Cl)N1CCc2sccc2C1 [clopidogrel, reference compound]

Structure (SMILES): CC(C)CC1OC(=O)CCNC(=O)[C@H](C(C)C)N(C)C(=O)[C@H](C(C)C)N(C)C(=O)[C@H](Cc2ccccc2)NC(=O)[C@@H]2CCCN2C1=O (stereo partly drawn) [Isaridin E, cyclo-[(OH) (S)-HMPA^1-L-Pro^2-L-Phe^3-N-Me-L-Val^4-N-Me-L-Val^5-β-Ala^6(CO)]] (cyclo(F[NMeV][NMeV][βAla][ξLac(3-iPr)]P))
- cytotoxicity on washed platelets (washed mouse platelets [1]; 6.25-400 μM, LDH > 10% considered cytotoxic): no obvious cytotoxicity
- LDH Release (%) (washed mouse platelets [1]; isaridin E 6.25 μM): 0.86 ± 0.03%
- LDH Release (%) (washed mouse platelets [1]; isaridin E 12.5 μM): 0.89 ± 0.04%
- LDH Release (%) (washed mouse platelets [1]; isaridin E 25 μM): 0.88 ± 0.03%
- LDH Release (%) (washed mouse platelets [1]; isaridin E 50 μM): 0.86 ± 0.03%
- LDH Release (%) (washed mouse platelets [1]; isaridin E 100 μM): 0.88 ± 0.04%
- LDH Release (%) (washed mouse platelets [1]; isaridin E 200 μM): 0.84 ± 0.02%
- LDH Release (%) (washed mouse platelets [1]; isaridin E 400 μM): 0.85 ± 0.02%
- HCT (hematocrit) [2, 11]: 39.5 ± 1.4%
- LY % (lymphocyte percentage) [2, 11]: 83.1 ± 2.5%
- MCH (mean red blood cell hemoglobin) [2, 11]: 17.3 ± 0.4 pg
- MCHC (mean red blood cell hemoglobin concentration) [2, 11]: 330 ± 8 g/L
- MCV (mean red blood cell volume) [2, 11]: 51.1 ± 0.8 fL
- MO % (monocyte percentage) [2, 11]: 2.7 ± 0.6%
- MPV (mean platelet volume) [2, 11]: 5.3 ± 0.3 fL
- NE % (neutrophil percentage) [2, 11]: 14.8 ± 2.2%
- PLT (platelet count) [2, 11]: 1233 ± 65 10^9/L
- RBC (red blood cell) [2, 11]: 7.8 ± 0.3 10^12/L
- RDW (red cell distribution width) [2, 11]: 15.2 ± 0.5%
- WBC (white blood cell) [2, 11]: 3.3 ± 0.5 10^9/L
- hematological parameters versus NS- and vehicle-treated groups [2, 12]: no significant differences
- effect on general coagulation (APTT, TT, PT, FIB) [3, 12]: no obvious effects
- ATPP [3, 13]: 32.4 ± 1.0 s
- FIB (fibrinogen) [3, 13]: 3.1 ± 0.1 g/L
- PT (prothrombin time) [3, 13]: 12.1 ± 0.4 s
- TT (thrombin time) [3, 13]: 14.0 ± 0.8 s
- tail bleeding time versus vehicle control (Tail-bleeding assay; 12.5, 25, 50 or 100 mg/kg): no obvious effects
- bleeding time compared with clopidogrel (10 mg/kg) (Tail-bleeding assay; isaridin E 12.5-100 mg/kg): significantly reduced
- ADP-induced maximum platelet aggregation, % of vehicle control (washed mouse platelets [4]; 12.5 μM): 75.6 ± 2.6%
- ADP-induced maximum platelet aggregation, % of vehicle control (washed mouse platelets [4]; 25 μM): 55.7 ± 4.8%
- ADP-induced maximum platelet aggregation, % of vehicle control (washed mouse platelets [4]; 50 μM): 26.6 ± 3.5%
- reduction of ADP-induced platelet aggregation versus vehicle control (washed mouse platelets [4]; 50 μM, extent similar to clopidogrel (20 μM)): 73.4 ± 3.5%
- ADP-induced maximum platelet aggregation, % of vehicle control (washed mouse platelets [4]; 100 μM): 15.6 ± 2.9%
- ADP-induced maximum platelet aggregation, % of vehicle control (washed mouse platelets [4]; 200 μM): 8.1 ± 0.8%
- IC50 (washed mouse platelets [4]; Mus musculus, Platelet, read-out: IC50 inhibiting ADP-induced platelet aggregation): 26.1 ± 2.9 µM
- maximum platelet aggregation in response to thrombin (washed mouse platelets [5]): no significant differences
- maximum platelet aggregation in response to collagen (washed mouse platelets [6]): no significant differences
- ADP-induced platelet ATP release, % of vehicle control (washed mouse platelets [7]; 6.25 μM): 60.7 ± 7.9%
- ADP-induced platelet ATP release, % of vehicle control (washed mouse platelets [7]; 12.5 μM): 31.7 ± 4.8%
- IC50 (washed mouse platelets [7]; Mus musculus, Platelet, read-out: IC50 inhibiting ADP-induced platelet ATP release): 7.9 ± 1.1 µM
- percentage of CD62p expression on the platelet surface (washed mouse platelets [8]; 25 μM): 29.6 ± 1.0%
- percentage of CD62p expression on the platelet surface (washed mouse platelets [8]; 50 μM): 16.0 ± 1.4%
- percentage of CD62p expression on the platelet surface (washed mouse platelets [8]; 100 μM): 8.4 ± 1.0%
- maximum thrombus size ([9]; 12.5, 25, 50, or 100 mg/kg oral gavage at 1, 24, 48 h before FeCl3 injury, at 12 min, dose-dependent): reduced
- time to the first thrombus formation ([9]; 12.5, 25, 50, or 100 mg/kg oral gavage at 1, 24, 48 h before FeCl3 injury, dose-dependent): significantly prolonged
- antithrombotic effects relative to clopidogrel at 10 mg/kg ([9]; 50 or 100 mg/kg): comparable to that of clopidogrel
- ADP-induced phosphorylation of PI3K (PI3K; 30 min, ADP 5 μM 5 min): significantly suppressed
- total protein expression of PI3K (PI3K): without altering
- ADP-induced phosphorylation of Akt (Akt; 30 min, ADP 5 μM 5 min): significantly suppressed
- total protein expression of Akt (Akt): without altering
- cytotoxicity in human neutrophils (human neutrophils): without cytotoxicity
- elastase release induced by FMLP (human neutrophils; human neutrophils): inhibiting
- superoxide anion generation induced by FMLP (human neutrophils; human neutrophils): inhibiting
- insecticidal activity [10]: insecticidal activity
